Data on two compounds can be found in patent publication US20030143634A1, “Method to detect interactions between cellular components in intact living cells, and to extract quantitative information relating to those interactions by fluorescence redistribution” (Biolmage A/S, priority 2001, published 2003).

Assay [1] concerns the target T1, FRB(T2098L) and FKBP (Homo sapiens, UniProt P42345+P62942, T2098L).
T1 construct: expressed in transfected cells; host or cells: CHO
In words: 3-part ActinPaint iGRIP system, response to dimerizer. In kind it is cell-based. The settings on record: CHO cells, 800 nM AP21967, 37° C. An excerpt: (§1) In this specific example, the 3 components of this second system were as follows:
(§2) 1) The anchor conjugate was made by fusing the F-actin binding domain of α-actinin (amino acids 1-133 of full protein sequence) to FRB(T2098L) [ps1570] (also referred to as FRB*). The cellular localization of the anchor could be detected with an antibody directed against the HA-tag included in the anchor fusion protein
(§3) 2) The mediator conjugate [ps1556] comprised wild-type FKBP protein fused to tandem repeats of FKBP(F36M), a mutant form of the protein that is known as FM and also CAD, and the coding plasmid for which was obtained from ARIAD Pharmaceuticals
(§4) 3) The detectable conjugate was made by fusing tandem repeats of CAD to EGFP [ps1547].
The three conjugates are depicted in diagrammatic form in FIG. 5a. […]
(§5) For compatibility with high throughput screening the cells were grown in microtitre plates for 16 hours from a seeding density of 1.0×10E5 cells per 400 μL, and an extraction procedure (described in Example 3) was used to remove mobile fluorescent components from cells, so that signal from immobile components could be measured. Plates were routinely stained with the nuclear dye Hoechst 22538 to enable correction of the immobile EGFP fluorescence signal from each well for cell density. […]

The target in assay [2] is T1, FRB(T2098L) and FKBP. In words: 2-part ActinPaint system, response to dimerizer. Conditions: CHO cells. It is filed as cell-based. On the procedure: The first system consists of 2 parts, an anchor conjugated to FRB(T2098L) [plasmid construct ps1570] and a detectable conjugate comprising FKBP fused to EGFP [ps1208]—these conjugates are depicted in FIG. 4a. […] The 2-part assay also acts as counter screen for any compounds that may directly or indirectly affect the location of the anchor protein itself within the cell.
For compatibility with high throughput screening the cells were grown in microtitre plates for 16 hours from a seeding density of 1.0×10E5 cells per 400 μL, and an extraction procedure (described in Example 3) was used to remove mobile fluorescent components from cells, so that signal from immobile components could be measured. Plates were routinely stained with the nuclear dye Hoechst 22538 to enable correction of the immobile EGFP fluorescence signal from each well for cell density.
Signals from immobile EGFP-labelled components and from the nuclear stain were read on an fluorescence plate reader (Fluoroskan Ascent CF, Labsystems, Finland) equipped with appropriate filter sets (EGFP: excitation 485 nm, emission 527 nm; Hoechst 22538: excitation 355 nm, emission 460 nm). […] For further experiments a dimerizer concentration of 800 nM for 2 hours was selected as giving adequate signal to background for extracted cells to be read on the Ascent plate reader.

Assay [3] has as its target T1, FRB(T2098L) and FKBP. In words: 2-part Histone H2B system, response to dimerizer and competition by FK506. The settings on record: CHO cells. It is filed as cell-based. On the procedure:
The 2-part assay also acts as counter screen for any compounds that may directly or indirectly affect the location of the anchor protein itself within the cell.
(§6) For compatibility with high throughput screening the cells were grown in microtitre plates for 16 hours from a seeding density of 1.0×10E5 cells per 400 μL, and an extraction procedure (described in Example 3) was used to remove mobile fluorescent components from cells, so that signal from immobile components locked in the nucleus could be measured. Plates were routinely stained with the nuclear dye Hoechst 22538 to enable correction of the immobile EGFP fluorescence signal from each well for cell density.
Signals from immobile EGFP-labelled components and from the nuclear stain were read on an fluorescence plate reader (Fluoroskan Ascent CF, Labsystems, Finland) equipped with appropriate filter sets (EGFP: excitation 485 nm, emission 527 nm; Hoechst 22538: excitation 355 nm, emission 460 nm).

For assay [4], the target named is T1, FRB(T2098L) and FKBP. Kind of assay: 2-part Src(1-14) system, response to dimerizer. Conditions: CHO cells, 500 nM AP21967 for 60 minutes. In kind it is cell-based. An excerpt: The first system consists of 2 parts, an anchor conjugated to FRB(T2098L) [plasmid construct ps1549] and a detectable conjugate comprising FKBP fused to EGFP [ps1208]. […] The 2-part assay also acts as counter screen for any compounds that may directly or indirectly affect the location of the anchor protein itself within the cell.
CHO cells were transfected and cultured essentially as described in Example 2, except the complement of plasmids required for the 2 and 3-part systems were transfected simultaneously rather than sequentially (as described in Example 2).
For selection of co-expressing cells, 2-part system cells transfected with ps1549+ps1208 were cultured with 1 mg/ml zeocin+5 μg/ml blasticidin HCl. Cells of the 3-part system were cultured with 1 mg/ml zeocin+5 μg/ml blasticidin HCl+0.5 mg/ml G418 sulphate.
This redistribution response to dimerizer is robust and can be competed by FK506. In the 3-part system, the response can also be competed by compound AP21998.
Without dimerizer present in the medium, cells from both 2- and 3-part Src(1-14) systems display a more or less uniform distribution of GFP fluorescence, throughout cytoplasmic and nuclear compartments (FIGS. 23a and 24a). Dimerizer addition results in recruitment of the CAD-linked mediator+detectable complexes to the plasma membrane (FIGS. 23b and 24b). […]

Assay [5] addresses T1, FRB(T2098L) and FKBP. In words: 3-part Src(1-14) system, response to dimerizer. It is filed as cell-based. Conditions: CHO cells, 500 nM AP21967 for 120 minutes.
Source text: as §1
1) The anchor conjugate was made by fusing c-Src(1-14) to FRB(T2098L) [ps1549]. The cellular localization of the anchor could be detected with an antibody directed against the HA-tag included in the anchor fusion protein
as §3, §4
The three conjugates are depicted in diagrammatic form in FIG. 5a. CAD proteins spontaneously homodimerize, so mediator and detectable conjugates are normally linked together in the 3-part system (FIG. 5b). Therefore in this example, the protein interaction to be tested was the CAD:CAD link between mediator and detectable conjugates. […] The link between CAD proteins can be broken by ARIAD compound AP21998 (FIG. 5d). AP21998 was therefore used as the reference compound to validate the system. […]
Without dimerizer present in the medium, cells from both 2- and 3-part Src(1-14) systems display a more or less uniform distribution of GFP fluorescence, throughout cytoplasmic and nuclear compartments (FIGS. 23a and 24a). […]

Assay [6] deals with T2, CAD:CAD link between mediator and detectable conjugates (Homo sapiens, UniProt P62942, F37M).
T2 construct: expressed in transfected cells; host or cells: CHO
In words: 3-part ActinPaint iGRIP system, interaction inhibitor dose-response (extraction procedure, plate reader). It is filed as cell-based. The settings on record: CHO cells.
Source text: as §1, §2, §3, §4
The three conjugates are depicted in diagrammatic form in FIG. 5a. CAD proteins spontaneously homodimerize, so mediator and detectable conjugates are normally linked together in the 3-part system (FIG. 5b). Therefore in this example, the protein interaction to be tested was the CAD:CAD link between mediator and detectable conjugates. […] The link between CAD proteins can be broken by ARIAD compound AP21998 (FIG. 5d). AP21998 was therefore used as the reference compound to validate the system. CHO cells were transfected and cultured essentially as described in Example 2, except the complement of plasmids required for the 2 and 3-part systems were transfected simultaneously rather than sequentially (as described in Example 2).
as §5
ActinPaint system. […] Plates were processed for extraction and nuclear staining then read in an Ascent plate reader. […]

Assay [7] concerns the target T2, CAD:CAD link between mediator and detectable conjugates. In words: 3-part Histone H2B iGRIP system, interaction inhibitor dose-response (extraction procedure, plate reader). In kind it is cell-based. The settings on record: CHO cells.
Source text: as §1
1) The anchor conjugate was made by fusing histone H2B to FRB(T2098L) [ps1569] (also referred to as FRB*). The cellular localization of the anchor could be detected with an antibody directed against the HA-tag included in the anchor fusion protein
as §3, §4
The three conjugates are depicted in diagrammatic form in FIG. 5a. CAD proteins spontaneously homodimerize, so mediator and detectable conjugates are normally linked together in the 3-part system (FIG. 5b). Therefore in this example, the protein interaction to be tested was the CAD:CAD link between mediator and detectable conjugates. […] The link between CAD proteins can be broken by ARIAD compound AP21998 (FIG. 5d). AP21998 was therefore used as the reference compound to validate the system.
as §6
Dose-response of this CAD-interaction inhibitor in the 3-part Histone H2B system could be compared with the compound's efficacy and potency in other systems, to determine if similar sensitivity to the inhibitor (and other inhibitors) could be expected from the Histone H2B system. […] Plates were processed for extraction and nuclear staining then read in an Ascent plate reader. […]

Assay [8] deals with transcription factor-based detection system. Conditions: data supplied by ARIAD Pharmaceuticals (RPD kit fact sheet); cited from earlier work.
Where [9] appears, read: 1000 nM AP21967, 2 hours, extraction procedure.
[10] abbreviates: AP21998 greater than 5 μM plus 800 nM AP21967, 2 hours.

On to `CO[C@H]1[C@@H](O)[C@H](C)C[C@H](C)/C=C/C=C/C=C(\C)[C@@H](c2c[nH]c3c(C)cccc23)C[C@@H]2CC[C@@H](C)[C@@](O)(O2)C(=O)C(=O)N2CCCC[C@H]2C(=O)O[C@H]([C@H](C)C[C@@H]2CC[C@@H](O)[C@H](OC)C2)C[C@H](O)[C@H](C)/C=C(\C)[C@H]1O` [AP21967], for which the “time after which EGFP labelling of aggregates is clearly visible” value on FRB(T2098L) and FKBP [1] is 15 min. Further, the “time after which recruitment of fluorescence to F-actin aggregates is visible” value at FRB(T2098L) and FKBP [2] (800 nM AP21967, 37° C.) was 2 min. The “increase of signal from immobile EGFP-labelled components relative to untreated cells” value at FRB(T2098L) and FKBP [2] (setting [9]) is given as “approximately 3 fold”. At FRB(T2098L) and FKBP [3] (800 nM AP21967, 37° C.), the “time after which recruitment of fluorescence to the nuclei is visible” value is 2 min and the “time to maximum response (recruitment to nuclei)” value is reported as “approximately 10 minutes”. In addition, the “increase of signal from immobile EGFP-labelled components relative to untreated cells” value at FRB(T2098L) and FKBP [3] (setting [9]) is recorded as “approximately 2 fold”. Also, the “EGFP distribution in micrograph (FIG. 23b)” value on FRB(T2098L) and FKBP [4] is recorded as “recruited to the plasma membrane”. In addition, on FRB(T2098L) and FKBP [5], the “EGFP distribution in micrograph (FIG. 24b)” value is on record as “recruited to the plasma membrane”.

`CC[C@H](C(=O)N1CCCCC1C(=O)O[C@H](CCc1ccc(OC)c(OC)c1)c1cccc(OCC(=O)NCCCN(C)C)c1)c1cc(OC)c(OC)c(OC)c1` (stereo partly drawn) [AP21998]: the “EGFP distribution in micrograph (FIG. 7c)” value in assay [6] (5 μM AP21998 for 2 hours after 800 nM AP21967 for 60 minutes, continued presence of AP21967) is recorded as “The bright aggregates have dispersed into the cytoplasm”. Moreover, the “EGFP-label remaining on the F-actin aggregates” value in assay [6] (setting [10]) was “no EGFP-label remained on the aggregates”. Further, the EC50 in assay [6] (co-treated with 800 nM AP21967, 2 hours, 37° C., read-out: EC50 for the prevention of recruitment / removal of EGFP-labelled components from the F-actin aggregates) is approximately 1.1 µM; in assay [7] (co-treated with 800 nM AP21967, 2 hours, 37° C., read-out: EC50 for the prevention of recruitment / removal of EGFP-labelled components from the nuclear compartment), approximately 1.8 µM; in assay [8] it was approximately 0.2 µM. For the same compound, the “EGFP distribution in micrograph (FIG. 15c)” value in assay [7] (800 nM AP21967 + 5 μM AP21998 for 2 hours) is on record as “no nuclear accumulation”. Besides, in assay [7] (setting [10]), the “EGFP-label remaining in the nuclei” value is reported as “no EGFP-label remained in the nuclei”.
